In this test the target is Programmed cell death 1 ligand 1 (Homo sapiens, UniProt Q9NZQ7). The test is described as follows: Enzyme-Linked Immunosorbent Assay—ELISA: 96 Well plates were coated with 1 μg/mL of human PD-L1 (obtained from R&D) in PBS overnight at 4′° C. The wells were then blocked with 2% BSA in PBS (W/V) with 0.05% TWEEN-20 for 1 hour at 37′° C. The plates were washed 3 times with PBS/0.05% TWEEN-20 and the compounds were serial diluted (1:5) in dilution medium and added to the ELISA plates. Human PD-1 and biotin 0.3 μg/mL (ACRO Biosystems) were added and incubated for 1 hour at 37° C. then washed 3 times with PBS/0.05% TWEEN-20. A second block was performed with 2% BSA in PBS (WNV)/0.05% TWEEN-20 for 10 min at 37° C. and the plates were washed 3 times with PBS/0.05% TWEEN-20. Streptavidin-HIRP was added for 1 hour at 37° C. then the plates were washed 3 times with PBS/0.05% TWEEN-20. TMB substrate was added and reacted for 20 min at 37° C. A stop solution (2 N aqueous H2SO4) was added.

By IC50 is commonly meant the concentration that inhibits the measured activity by half. A lower IC50 goes with greater potency.

Sequence of Programmed cell death 1 ligand 1 (Q9NZQ7 whole entry): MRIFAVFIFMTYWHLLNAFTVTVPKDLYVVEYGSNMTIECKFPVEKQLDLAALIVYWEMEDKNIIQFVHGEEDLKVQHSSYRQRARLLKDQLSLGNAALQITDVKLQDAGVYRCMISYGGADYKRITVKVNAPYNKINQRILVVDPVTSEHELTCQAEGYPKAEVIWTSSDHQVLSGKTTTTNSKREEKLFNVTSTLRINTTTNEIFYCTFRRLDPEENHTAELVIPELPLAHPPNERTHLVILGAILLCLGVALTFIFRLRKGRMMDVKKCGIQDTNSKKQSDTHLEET

`COc1cc(-c2cccc(-c3cccc(-c4cc(F)c(CN)c(OC)c4)c3C)c2C)cc(F)c1CN` displayed an IC50 of under 1 µM.

`COc1cccc(-c2cccc(-c3cc(F)c(CN)c(OC)c3)c2C)c1F` showed an IC50 of under 1 µM.

The compound `COc1cc(-c2cccc(-c3ccc4c(c3F)OCCO4)c2C)cc(F)c1CN` came in with an IC50 of under 1 µM.

`COc1cc(-c2cccc(-c3ccc4c(c3)NC(=O)CO4)c2C)cc(F)c1CN` came in with a concentration for half-maximal inhibition (IC50) of under 1 µM.

Regarding `COc1cc(-c2cccc(-c3cccc(C)c3)c2C)cc(F)c1CN`, the IC50 was under 1 µM.

For `COc1cccc(-c2cccc(-c3cc(F)c(CN)c(OC)c3)c2C)c1C`, the IC50 was under 1 µM.

In the case of `COc1cc(-c2cccc(-c3ccc4c(c3)OCCO4)c2C)cc(F)c1CN`, the IC50 is under 1 µM.

`COc1cc(-c2cccc(-c3ccc4nc[nH]c(=O)c4c3)c2C)cc(F)c1CN`: the IC50 was under 1 µM.

In turn, `COc1cccc(-c2cccc(-c3cc(F)c(CN)c(OC)c3)c2C)c1` displayed an IC50 of under 1 µM.

Regarding `COc1cc(F)cc(-c2cccc(-c3cc(F)c(CN)c(OC)c3)c2C)c1`, the IC50 was under 1 µM.

As to `COC(=O)c1ccc(-c2cccc(-c3cccc(-c4cc(F)c(CN)c(OC)c4)c3C)c2C)cc1OC`, the IC50 was under 1 µM.

`Cc1c(-c2ccc(CN)cc2)cccc1-c1cccc(-c2ccc(CN)cc2)c1C`: the IC50 is under 1 µM.

`COc1cc(-c2cccc(-c3ccc4c(c3C)OCCO4)c2C)cc(F)c1CN`: the IC50 was under 1 µM.

Turning to `COc1ccc(F)c(-c2cccc(-c3cc(F)c(CN)c(OC)c3)c2C)c1F`, the IC50 is under 1 µM.

Regarding `COc1cc(-c2cccc(-c3cccc(-c4cc(F)c(CN)c(OC)c4)c3C)c2C)ccc1CC(N)=O`, the IC50 is under 1 µM.

On to `COc1cc(OC)c(F)c(-c2cccc(-c3cc(F)c(CN)c(OC)c3)c2C)c1F`, for which the IC50 was under 1 µM.

For the compound `COc1cc(-c2cccc(-c3cccc(C)c3F)c2C)cc(F)c1CN`, the IC50 was under 1 µM.

`COc1cc(-c2cccc(-c3ccc4c(c3)OC(CN)CO4)c2C)cc(F)c1CN` (centres undefined) came in with an IC50 of under 1 µM.

The compound `COc1cc(-c2cccc(-c3cccc(-c4ccc(CN)cc4)c3C)c2C)cc(F)c1CN` came in with an IC50 of under 1 µM.

Values taken from ChEMBL document CHEMBL5729415, “Compounds for treatment of PD-L1 diseases” (2022).
